Laboratory results reported in patent US20260167629A1, “NOVEL INDAZOLE DERIVATIVE OR PHARMACEUTICALLY ACCEPTABLE SALT THEREOF, AND USE THEREOF” (KOREA UNIVERSITY RESEARCH AND BUSINESS FOUNDATION, priority 2022, published 2026).

Assays:
[1] = system: Hsp90 clients in BT474 cell line; assay: Western blotting of Hsp90 clients, BT474; assay type: cell-based; details: BT474, 10 μM, 72 hours
Experimental: (§1) To perform western blotting, BT-474 and JIMT-1 cell lines were treated with control (DMSO), compound 18c, and compound 11k at concentrations of 10 μM each for 72 hours, and then lysed in lysis buffer (30 mM NaCl, 0.5% Triton X-100, 50 mM Tris-HCl; pH 7.4) containing phosphatase and protease inhibitors. The proteins present in the supernatant were harvested. The protein concentration was measured using a Bradford protein assay kit, and 30 μg of protein was taken equally from each experimental group. These proteins were electrophoresed on SDS-Polyacrylamide gels (8-15%), and electrically transferred to a nitrocellulose membrane. The membrane was reacted with primary antibodies [pro PARP (1:1000), cleaved PARP (1:2000), cleaved caspase-3 (1:1000), cleaved caspase-7 (1:1000), β-actin (1:5000)] diluted in 5% bovine serum albumin (BSA) at 4° C. for 24 hours, followed by a secondary antibody, horseradish peroxidase (HRP)-conjugated rabbit IgG (1:3000) for 2 hours at room temperature. The signal intensity of the above proteins was checked by color development using an Enhanced Chemiluminescence Kit and x-ray film.
(§2) Western blotting was used to investigate whether Hsp90 inhibitors, compound 18c (formula 1-16) and compound 11k (formula 1-7), could downregulate the expression and activity (phosphorylation) of HER2 and HER3, which are representative clients of Hsp90, in BT474 and JIMT-1 cell lines. The expression of Akt, MEK, ERK, Bcl-2, Cyclin D1, and Survivin, which are key factors for cell survival as Hsp90 clients, was also investigated. The western blotting was performed by the method that was used in Experimental Example 2.3.
(§3) The BT474 and JIMT-1 cell lines were treated with compound 18c and compound 11k at a concentration of 10 μM for 72 hours.

[2] = system: cleaved caspase-3, cleaved caspase-7, PARP in BT474 cell line; assay: Western blotting of apoptosis-related proteins, BT474; assay type: cell-based; details: BT474, 10 μM, 72 hours; for amounts of cleaved caspase-3 and cleaved caspase-7: compared to the control group
Experimental: (§4) To investigate the mechanism of cell death by compound 18c (formula 1-16) and compound 11k (formula 1-7), the activation of apoptosis-related factor caspase family members was determined through western blotting.
as §1

[3] = system: cleaved caspase-3, cleaved caspase-7, PARP in JIMT-1 cell line; assay: Western blotting of apoptosis-related proteins, JIMT-1; assay type: cell-based; details: JIMT-1, 10 μM, 72 hours; for amounts of cleaved caspase-3 and cleaved caspase-7: compared to the control group
Experimental: as §4, §1

[4] = system: Hsp90 clients in JIMT-1 cell line; assay: Western blotting of Hsp90 clients, JIMT-1; assay type: cell-based; details: JIMT-1, 10 μM, 72 hours
Experimental: as §1, §2, §3

JIMT-1 cell line = assay: MTS cell viability assay in JIMT-1 cell line; assay type: cell-based; details: Homo sapiens, JIMT-1, 72 hours
Experimental: The control group was treated with DMSO as an untreated group (0 μM) of the indazole derivative of the present disclosure.
Specifically, cells were attached to 96 well plates for 24 hours, and then treated with the indazole derivatives for 72 hours. Thereafter, the cells were chromogenized with MTS for 4 hours, and the absorbance was measured at 490 nm using a Spectramax Plus384 microplate analyzer.
HER2 positive breast cancer (HER2+BC) cell lines, BT474 (cell seeding numbers: 2.4 (BT474)×10^4 cells/wells (confluency≥50%)) sensitive to trastuzumab and JIMT-1 (cell seeding numbers: 1.0 (JIMT-1)×10^4 cells/wells (confluency>30%)) resistant to trastuzumab were used in the experiment.
In this case, the cell lines were treated with the benzopyran derivative at a concentration of 10 μM for 72 hours and the cell lines were treated with the indazole derivative at a concentration of 10 μM for 72 hours, and then the cell viability was measured.

[5] = system: JIMT-1 breast cancer cell line xenograft; assay: Tumor growth in xenograft mouse model transplanted with JIMT-1; assay type: in vivo, Balb/c nude mice; details: intraperitoneally, 30 mg/kg compound 18c or 20 mg/kg compound 11k; for tumor volume / tumor weight: compared to the control group
Experimental: This experiment was performed in an in vivo environment using a xenograft mouse model transplanted with the JIMT-1 breast cancer cell line.
6-week-old mice (Balb/c nude mice) were purchased and raised in an environment where they could freely access food and water. The mice were acclimated for more than 7 days, and then were transplanted with tumor cells. Tumor cells were injected subcutaneously into the mammary gland tissue of JIMT-1 breast cancer cells at a density of 3×10^6 cells/mL per individual, and when the tumor reached a size of 50 to 100 mm^3, the indazole derivative of the present disclosure was administered intraperitoneally, and the tumor growth was measured. The experimental groups were treated with either 30 mg/kg of compound 18c (formula 1-16) or 20 mg/kg of compound 11k (formula 1-7), and tumor volume, tumor weight, body weight, and the like were measured every 3 to 4 days from the time of administration until the end of the study.

[6] = system: BT474 breast cancer cell line; assay: Flow cytometry DNA content (PI), cell cycle arrest and cell death, BT474; assay type: cell-based; details: BT474, 5 and 10 μM, 72 hours, flow cytometer
Experimental: The degree of cancer cell death by the indazole derivative of the present disclosure was measured by analyzing DNA content using a flow cytometer. Cells were treated with compound 18c (formula 1-16) and compound 11k (formula 1-7) at concentrations of 0 (DMSO), 5, and 10 μM for 72 hours, and then the cells were harvested. Thereafter, the cells were fixed with 95% ethanol containing 0.5% Tween-20 for 24 hours, and stained with propidium iodide (PI, 50 μg/mL) and RNase (50 μg/mL) for 30 minutes. Afterwards, the degree of cancer cell death was analyzed using a flow cytometer.
In general, the cell cycle is divided into G1 (cell growth phase)—S(cell replication phase)—G2/M (cell division phase) according to the content of intracellular DNA. […] The results of this cell death within the cell cycle are manifested by the Sub-G1 region, and the percentage of Sub-G1 induced by the indazole derivative of the present disclosure is shown numerically in FIGS. 5B and 6B.

COc1c(C(=O)Nc2ccc3c(C)nn(CCC4CCN(C)CC4)c3c2)ccc2c1C=CC(C)(C)O2 [compound 11k, 5-Methoxy-2,2-dimethyl-N-(3-methyl-1-(2-(1-methylpiperidin-4-yl)ethyl)-1H-indazol-6-yl)-2H-chromene-6-carboxamide]
expression of HER2 and HER3 [1]: decreased
expression of activated forms phospho-HER2 and phospho-HER3 [1]: significantly reduced
expression of cell proliferation factors Akt, MEK, ERK, Bcl-2, Cyclin D1, and Survivin [1]: inhibited the expression
cleaved-PARP (89 kDa) [2]: increase
amounts of cleaved caspase-3 and cleaved caspase-7 [2]: significantly increased
cleaved-PARP (89 kDa) [3]: increase
amounts of cleaved caspase-3 and cleaved caspase-7 [3]: significantly increased
expression of HER2 and HER3 [4]: decreased
expression of activated forms phospho-HER2 and phospho-HER3 [4]: significantly reduced
expression of cell proliferation factors Akt, MEK, ERK, Bcl-2, Cyclin D1, and Survivin [4]: inhibited the expression
IC50 (JIMT-1 cell line): 4.06 µM
tumor size (visual inspection) [5]: reduced by more than half
tumor volume [5]: significantly reduced
tumor weight [5]: significantly reduced
G2/M phase of the cell cycle [6]: arrested the G2/M phase
cell death (Sub-G1 population) [6]: significantly induced cell death

COCCn1nc(NC(=O)c2ccc3c(c2OC)C=CC(C)(C)O3)c2ccccc21 [compound 18c, 5-Methoxy-N-(1-(2-methoxyethyl)-1H-indazol-3-yl)-2,2-dimethyl-2H-chromene-6-carboxamide]
expression of HER2 and HER3 [1]: decreased
expression of activated forms phospho-HER2 and phospho-HER3 [1]: significantly reduced
expression of cell proliferation factors Akt, MEK, ERK, Bcl-2, Cyclin D1, and Survivin [1]: inhibited the expression
cleaved-PARP (89 kDa) [2]: increase
amounts of cleaved caspase-3 and cleaved caspase-7 [2]: significantly increased
cleaved-PARP (89 kDa) [3]: increase
amounts of cleaved caspase-3 and cleaved caspase-7 [3]: significantly increased
expression of HER2 and HER3 [4]: decreased
expression of activated forms phospho-HER2 and phospho-HER3 [4]: significantly reduced
expression of cell proliferation factors Akt, MEK, ERK, Bcl-2, Cyclin D1, and Survivin [4]: inhibited the expression
IC50 (JIMT-1 cell line): 4.6 µM
tumor size (visual inspection) [5]: reduced by more than half
tumor volume [5]: significantly reduced
tumor weight [5]: significantly reduced
G2/M phase of the cell cycle [6]: arrested the G2/M phase
cell death (Sub-G1 population) [6]: significantly induced cell death
